Assays:
HT-29 = assay: Anticancer activity against human HT-29 cells assessed as cell growth inhibition at 10 uM incubated for 48 hrs by SRB assay relative to control; assay type: functional; conditions: read-out: GI
SNB-19 = assay: Anticancer activity against human SNB-19 cells assessed as cell growth inhibition at 10 uM incubated for 48 hrs by SRB assay relative to control; assay type: functional; conditions: read-out: GI
OVCAR-8 = assay: Anticancer activity against human OVCAR-8 cells assessed as cell growth inhibition at 10 uM incubated for 48 hrs by SRB assay relative to control; assay type: functional; conditions: read-out: GI
T47D = assay: Anticancer activity against human T47D cells assessed as cell growth inhibition at 10 uM incubated for 48 hrs by SRB assay relative to control; assay type: functional; conditions: read-out: GI
SK-MEL-2 = assay: Anticancer activity against human SK-MEL-2 cells assessed as cell growth inhibition at 10 uM incubated for 48 hrs by SRB assay relative to control; assay type: functional; conditions: read-out: GI
CCRF-CEM = assay: Anticancer activity against human CCRF-CEM cells assessed as cell growth inhibition at 10 uM incubated for 48 hrs by SRB assay relative to control; assay type: functional; conditions: read-out: GI
MCF7 = assay: Anticancer activity against human MCF7 cells assessed as cell growth inhibition at 10 uM incubated for 48 hrs by SRB assay relative to control; assay type: functional; conditions: read-out: GI
HCC 2998 = assay: Anticancer activity against human HCC 2998 cells assessed as cell growth inhibition at 10 uM incubated for 48 hrs by SRB assay relative to control; assay type: functional; conditions: read-out: GI
PC-3 = assay: Anticancer activity against human PC-3 cells assessed as cell growth inhibition at 10 uM incubated for 48 hrs by SRB assay relative to control; assay type: functional; conditions: read-out: GI
Malme-3M = assay: Anticancer activity against human Malme-3M cells assessed as cell growth inhibition at 10 uM incubated for 48 hrs by SRB assay relative to control; assay type: functional; conditions: read-out: GI
MDA-MB-468 = assay: Anticancer activity against human MDA-MB-468 cells assessed as cell growth inhibition at 10 uM incubated for 48 hrs by SRB assay relative to control; assay type: functional; conditions: read-out: GI
OVCAR-3 = assay: Anticancer activity against human OVCAR-3 cells assessed as cell growth inhibition at 10 uM incubated for 48 hrs by SRB assay relative to control; assay type: functional; conditions: read-out: GI
Hs-578T = assay: Anticancer activity against human Hs-578T cells assessed as cell growth inhibition at 10 uM incubated for 48 hrs by SRB assay relative to control; assay type: functional; conditions: read-out: GI
NCI-H226 = assay: Anticancer activity against human NCI-H226 cells assessed as cell growth inhibition at 10 uM incubated for 48 hrs by SRB assay relative to control; assay type: functional; conditions: read-out: GI
COLO 205 = assay: Anticancer activity against human COLO 205 cells assessed as cell growth inhibition at 10 uM incubated for 48 hrs by SRB assay relative to control; assay type: functional; conditions: read-out: GI
NCI-H23 = assay: Anticancer activity against human NCI-H23 cells assessed as cell growth inhibition at 10 uM incubated for 48 hrs by SRB assay relative to control; assay type: functional; conditions: read-out: GI
NCI-H322M = assay: Anticancer activity against human NCI-H322M cells assessed as cell growth inhibition at 10 uM incubated for 48 hrs by SRB assay relative to control; assay type: functional; conditions: read-out: GI
U-251 = assay: Anticancer activity against human U-251 cells assessed as cell growth inhibition at 10 uM incubated for 48 hrs by SRB assay relative to control; assay type: functional; conditions: read-out: GI
K562 = assay: Anticancer activity against human K562 cells assessed as cell growth inhibition at 10 uM incubated for 48 hrs by SRB assay relative to control; assay type: functional; conditions: read-out: GI
MDA-MB-435 = assay: Anticancer activity against human MDA-MB-435 cells assessed as cell growth inhibition at 10 uM incubated for 48 hrs by SRB assay relative to control; assay type: functional; conditions: read-out: GI
UACC-257 = assay: Anticancer activity against human UACC-257 cells assessed as cell growth inhibition at 10 uM incubated for 48 hrs by SRB assay relative to control; assay type: functional; conditions: read-out: GI
DU-145 = assay: Anticancer activity against human DU-145 cells assessed as cell growth inhibition at 10 uM incubated for 48 hrs by SRB assay relative to control; assay type: functional; conditions: read-out: GI
UO-31 = assay: Anticancer activity against human UO-31 cells assessed as cell growth inhibition at 10 uM incubated for 48 hrs by SRB assay relative to control; assay type: functional; conditions: read-out: GI
SW-620 = assay: Anticancer activity against human SW-620 cells assessed as cell growth inhibition at 10 uM incubated for 48 hrs by SRB assay relative to control; assay type: functional; conditions: read-out: GI
SK-MEL-5 = assay: Anticancer activity against human SK-MEL-5 cells assessed as cell growth inhibition at 10 uM incubated for 48 hrs by SRB assay relative to control; assay type: functional; conditions: read-out: GI
A549 = assay: Anticancer activity against human A549 cells assessed as cell growth inhibition at 10 uM incubated for 48 hrs by SRB assay relative to control; assay type: functional; conditions: read-out: GI
KM12 = assay: Anticancer activity against human KM12 cells assessed as cell growth inhibition at 10 uM incubated for 48 hrs by SRB assay relative to control; assay type: functional; conditions: read-out: GI
EKVX = assay: Anticancer activity against human EKVX cells assessed as cell growth inhibition at 10 uM incubated for 48 hrs by SRB assay relative to control; assay type: functional; conditions: read-out: GI
UACC-62 = assay: Anticancer activity against human UACC-62 cells assessed as cell growth inhibition at 10 uM incubated for 48 hrs by SRB assay relative to control; assay type: functional; conditions: read-out: GI
Carbonic anhydrase 9 = Carbonic anhydrase 9 (Homo sapiens, UniProt Q16790); assay: Inhibition of recombinant human CA 9 preincubated for 15 mins by phenol red dye based stopped flow CO2 hydration assay
SF-295 = assay: Anticancer activity against human SF-295 cells assessed as cell growth inhibition at 10 uM incubated for 48 hrs by SRB assay relative to control; assay type: functional; conditions: read-out: GI
NCI-H460 = assay: Anticancer activity against human NCI-H460 cells assessed as cell growth inhibition at 10 uM incubated for 48 hrs by SRB assay relative to control; assay type: functional; conditions: read-out: GI
CAKI-1 = assay: Anticancer activity against human CAKI-1 cells assessed as cell growth inhibition at 10 uM incubated for 48 hrs by SRB assay relative to control; assay type: functional; conditions: read-out: GI
HOP-92 = assay: Anticancer activity against human HOP-92 cells assessed as cell growth inhibition at 10 uM incubated for 48 hrs by SRB assay relative to control; assay type: functional; conditions: read-out: GI
A498 = assay: Anticancer activity against human A498 cells assessed as cell growth inhibition at 10 uM incubated for 48 hrs by SRB assay relative to control; assay type: functional; conditions: read-out: GI
NCI-H522 = assay: Anticancer activity against human NCI-H522 cells assessed as cell growth inhibition at 10 uM incubated for 48 hrs by SRB assay relative to control; assay type: functional; conditions: read-out: GI
SK-OV-3 = assay: Anticancer activity against human SK-OV-3 cells assessed as cell growth inhibition at 10 uM incubated for 48 hrs by SRB assay relative to control; assay type: functional; conditions: read-out: GI
HOP-62 = assay: Anticancer activity against human HOP-62 cells assessed as cell growth inhibition at 10 uM incubated for 48 hrs by SRB assay relative to control; assay type: functional; conditions: read-out: GI
SF-539 = assay: Anticancer activity against human SF-539 cells assessed as cell growth inhibition at 10 uM incubated for 48 hrs by SRB assay relative to control; assay type: functional; conditions: read-out: GI
RPMI-8226 = assay: Anticancer activity against human RPMI-8226 cells assessed as cell growth inhibition at 10 uM incubated for 48 hrs by SRB assay relative to control; assay type: functional; conditions: read-out: GI

Structure (SMILES)	inhibition of growth at 10 µM (HT-29)	inhibition of growth at 10 µM (SNB-19)	inhibition of growth at 10 µM (OVCAR-8)	inhibition of growth at 10 µM (T47D)	inhibition of growth at 10 µM (SK-MEL-2)	inhibition of growth at 10 µM (CCRF-CEM)	inhibition of growth at 10 µM (MCF7)	inhibition of growth at 10 µM (HCC 2998)	inhibition of growth at 10 µM (PC-3)	inhibition of growth at 10 µM (Malme-3M)	inhibition of growth at 10 µM (MDA-MB-468)	inhibition of growth at 10 µM (OVCAR-3)	inhibition of growth at 10 µM (Hs-578T)	inhibition of growth at 10 µM (NCI-H226)	inhibition of growth at 10 µM (COLO 205)	inhibition of growth at 10 µM (NCI-H23)	inhibition of growth at 10 µM (NCI-H322M)	inhibition of growth at 10 µM (U-251)	inhibition of growth at 10 µM (K562)	inhibition of growth at 10 µM (MDA-MB-435)	further results
NS(=O)(=O)c1ccc(Nc2nc(N/N=C/c3ccc(C(F)(F)F)cc3)nc(Nc3ccccc3)n2)cc1	88%	66%	67%	68%	71%	88%	89%	46%	85%	77%	65%	88%	91%	63%	70%	47%	47%	81%	82%	80%	inhibition of growth at 10 µM (UACC-257): 60%; inhibition of growth at 10 µM (DU-145): 60%; inhibition of growth at 10 µM (UO-31): 39%; inhibition of growth at 10 µM (SW-620): 45%; inhibition of growth at 10 µM (SK-MEL-5): 65%; inhibition of growth at 10 µM (A549): 72%; inhibition of growth at 10 µM (KM12): 78%; inhibition of growth at 10 µM (EKVX): 46%; inhibition of growth at 10 µM (UACC-62): 85%; Ki (Carbonic anhydrase 9): 29.7 nM; inhibition of growth at 10 µM (SF-295): 95%; inhibition of growth at 10 µM (NCI-H460): 85%; inhibition of growth at 10 µM (CAKI-1): 66%; inhibition of growth at 10 µM (HOP-92): 42%; inhibition of growth at 10 µM (A498): 60%; inhibition of growth at 10 µM (NCI-H522): 62%; inhibition of growth at 10 µM (SK-OV-3): 44%; inhibition of growth at 10 µM (HOP-62): 61%; inhibition of growth at 10 µM (SF-539): 76%; inhibition of growth at 10 µM (RPMI-8226): 105%
NS(=O)(=O)c1ccc(Nc2nc(N/N=C/c3ccc4c(c3)OCO4)nc(Nc3ccccc3)n2)cc1	59%	44%	50%	45%	44%	83%	81%	76%	40%	41%	53%	51%	47%	34%	50%	74%	38%	44%	66%	40%	inhibition of growth at 10 µM (UACC-257): 15%; inhibition of growth at 10 µM (DU-145): 58%; inhibition of growth at 10 µM (UO-31): 23%; inhibition of growth at 10 µM (SW-620): 50%; inhibition of growth at 10 µM (SK-MEL-5): 45%; inhibition of growth at 10 µM (A549): 25%; inhibition of growth at 10 µM (KM12): 29%; inhibition of growth at 10 µM (EKVX): 26%; inhibition of growth at 10 µM (UACC-62): 21%; Ki (Carbonic anhydrase 9): 29.3 nM; inhibition of growth at 10 µM (SF-295): 35%; inhibition of growth at 10 µM (NCI-H460): 97%; inhibition of growth at 10 µM (CAKI-1): 54%; inhibition of growth at 10 µM (HOP-92): 33%; inhibition of growth at 10 µM (A498): 48%; inhibition of growth at 10 µM (NCI-H522): 39%; inhibition of growth at 10 µM (SK-OV-3): 34%; inhibition of growth at 10 µM (HOP-62): 70%; inhibition of growth at 10 µM (SF-539): 83%; inhibition of growth at 10 µM (RPMI-8226): 45%
